Assay [1] deals with Lysine-specific histone demethylase 1A (Homo sapiens, UniProt O60341).
Description: Inhibition of recombinant human LSD1 expressed in Escherichia coli BL21(DE3) using H3K4me2 as substrate by fluorescence assay
In assay [2] the target is T1, Amine oxidase [flavin-containing] A (Homo sapiens, UniProt P21397).
T1 sequence (P21397 whole entry): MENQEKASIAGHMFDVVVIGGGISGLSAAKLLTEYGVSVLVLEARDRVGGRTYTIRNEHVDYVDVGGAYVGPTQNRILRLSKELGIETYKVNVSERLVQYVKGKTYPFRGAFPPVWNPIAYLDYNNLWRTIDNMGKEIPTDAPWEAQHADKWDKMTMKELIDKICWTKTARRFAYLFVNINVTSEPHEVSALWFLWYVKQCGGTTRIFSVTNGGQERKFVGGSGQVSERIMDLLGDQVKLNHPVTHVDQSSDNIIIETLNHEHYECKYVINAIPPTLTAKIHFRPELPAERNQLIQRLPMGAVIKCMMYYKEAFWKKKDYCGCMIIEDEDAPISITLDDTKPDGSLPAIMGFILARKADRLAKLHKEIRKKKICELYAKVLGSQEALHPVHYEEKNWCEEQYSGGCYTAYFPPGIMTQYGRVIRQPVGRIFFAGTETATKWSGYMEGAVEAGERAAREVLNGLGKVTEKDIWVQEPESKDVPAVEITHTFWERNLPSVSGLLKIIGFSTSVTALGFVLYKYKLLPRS
Description: Inhibition of MAO-A (unknown origin)

Assay [3] deals with T2, Amine oxidase [flavin-containing] B (Homo sapiens, UniProt P27338).
T2 sequence (P27338 whole entry): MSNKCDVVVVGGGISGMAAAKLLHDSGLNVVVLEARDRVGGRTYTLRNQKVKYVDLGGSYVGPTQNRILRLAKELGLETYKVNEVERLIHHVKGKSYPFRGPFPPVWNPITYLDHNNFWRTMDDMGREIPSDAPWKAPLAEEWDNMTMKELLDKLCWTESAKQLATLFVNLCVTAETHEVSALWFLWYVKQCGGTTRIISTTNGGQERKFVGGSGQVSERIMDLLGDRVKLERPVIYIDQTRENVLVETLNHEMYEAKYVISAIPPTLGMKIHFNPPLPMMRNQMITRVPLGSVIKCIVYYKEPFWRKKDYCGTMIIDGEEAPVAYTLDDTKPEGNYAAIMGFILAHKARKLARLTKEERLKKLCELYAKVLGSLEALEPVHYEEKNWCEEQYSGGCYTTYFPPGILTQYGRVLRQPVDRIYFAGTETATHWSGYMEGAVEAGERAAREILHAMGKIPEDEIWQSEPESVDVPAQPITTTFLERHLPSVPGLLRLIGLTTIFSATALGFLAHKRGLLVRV
Description: Inhibition of MAO-B (unknown origin)

Assay [4] concerns MGC-803. Briefly: Effect on total H3 protein expression in human MGC803 cells at 0.1 to 0.5 uM after 48 hrs by Western blot analysis. The assay is classed as functional, cell-based.

Calls of active or inactive are those of the source. No cut-off for these calls is given here. Bounds are passed on as bounds.

By IC50 is commonly meant the concentration that inhibits the measured activity by half. A low value points to higher potency. With `CC(C)(C)OC(=O)N1CCN(C(=S)SCc2cn(Cc3cc4ccc(O)cc4oc3=O)nn2)CC1`, 103 µM corresponded to half-maximal inhibition in assay [1] (IC50). In the case of `Cc1cc(O)cc2oc(=O)cc(Cn3cc(CSC(=S)N4CCN(C(=O)OC(C)(C)C)CC4)nn3)c12`, the IC50 in assay [1] is > 125 µM. Consider `Cc1ccc2oc(=O)cc(Cn3cc(CSC(=S)N4CCN(C(=O)OC(C)(C)C)CC4)nn3)c2c1`, for which the IC50 in assay [1] is > 125 µM. As to `CC(C)(C)OC(=O)N1CCN(C(=S)SCc2cn(Cc3cc(=O)oc4ccc(Cl)cc34)nn2)CC1`, the concentration for half-maximal inhibition (IC50) in assay [1] is > 125 µM. As for `CC(C)(C)OC(=O)N1CCN(C(=S)SCc2cn(Cc3cc4ccccc4oc3=O)nn2)CC1`, in assay [1], the IC50 was > 125 µM. For `CC(C)(C)OC(=O)N1CCN(C(=S)SCc2cn(Cc3cc(=O)oc4cc(O)ccc34)nn2)CC1`, the IC50 in assay [2] and in assay [3] was > 1250 µM in each case. For the same molecule, the outcome in assay [4] was inactive.
